35 compounds from patent publication US5278045A, “Method and compositions to screen compounds for enhancement of the cholinergic, dopaminergic and serotonergic function” (Du Pont Merck Pharmaceutical Company, priority 1990, dated 1994) can be followed below.

Where no end group is shown, it is not given here.

For the first assay, the system named is DuP 996 binding protein. Briefly: Specificity of the DuP 996 binding protein (displacement of tritiated DuP 996 by pharmacological standards). Also on record: species or system rat.
Conditions: not given
Regarding `CN1[C@@H]2CC[C@H]1C[C@@H](OC(=O)C(CO)c1ccccc1)C2` (some centres unmarked) [atropine], the “ability to displace tritiated DuP 996 binding from the binding protein” value (shortened to “ability”) is “None of these pharmacological standards was able to displace”. On the same count and under the same terms, the result for `CN1C(=O)CN=C(c2ccccc2)c2cc(Cl)ccc21` [diazepam] reads “None of these pharmacological standards was able to displace”. As to `CN1CCCC1c1cccnc1` (centres unmarked) [nicotine], the “ability” value is listed as “None of these pharmacological standards was able to displace”.

As to `COc1ccc(CCN(C)CCCC(C#N)(c2ccc(OC)c(OC)c2)C(C)C)cc1OC` (centres unmarked) [verapamil], the “ability” value is “None of these pharmacological standards was able to displace”.

Still in this assay, the particulars now being: receptor and ion channel ligands and neuropeptides against 10 nM tritiated DuP 996.
As to 3,4-aminopyridine, the “ability” value is reported as “None of these pharmacological standards was able to displace”. On the same count and under the same terms, under `C=CCN1CCC2(C)c3cc(O)ccc3CC1C2C` (single isomer, unassigned; (+)) [(+)-SKF 10,047] stands “None of these pharmacological standards was able to displace”.

As for `NCCCC(=O)O` [GABA], the “ability” value is “None of these pharmacological standards was able to displace”.

Regarding `CN[C@H](CC(=O)O)C(=O)O` [N-methyl-D-aspartic acid], the “ability” value was “None of these pharmacological standards was able to displace”. Same read-out and setting: under `Nc1ncnc2c1ncn2[C@@H]1O[C@H](CO)[C@@H](O)[C@H]1O` [adenosine] stands “None of these pharmacological standards was able to displace”; under `CN(C)CCC=C1c2ccccc2CCc2ccccc21` [amitriptyline], “None of these pharmacological standards was able to displace”. Same read-out and setting: under `CC(N)Cc1ccccc1` (centres unmarked) [amphetamine] stands “None of these pharmacological standards was able to displace”. Same read-out and setting: the result for `Cn1c(=O)c2c(ncn2C)n(C)c1=O` [caffeine] reads “None of these pharmacological standards was able to displace”; that for `CN/C(=N/CCSCc1nc[nH]c1C)NC#N` [cimetidine], “None of these pharmacological standards was able to displace”; that for `O=C(CCCN1CCC(O)(c2ccc(Cl)cc2)CC1)c1ccc(F)cc1` [haloperidol], “None of these pharmacological standards was able to displace”. For the compound `CC(C)NCC(O)c1ccc(O)c(O)c1` (centres unmarked) [isoproterenol], the “ability” value is given as “None of these pharmacological standards was able to displace”. On the same count and under the same terms, the result for `CN1CCN2c3ccccc3Cc3ccccc3C2C1` (centres unmarked) [mianserin] reads “None of these pharmacological standards was able to displace”; that for `C=CCN1CC[C@]23c4c5ccc(O)c4O[C@H]2C(=O)CC[C@@]3(O)[C@H]1C5` [naloxone], “None of these pharmacological standards was able to displace”. For the compound `NC[C@H](O)c1ccc(O)c(O)c1` [norepinephrine], the “ability” value is “None of these pharmacological standards was able to displace”. On the same count and under the same terms, the result for `C1CCc2nnnn2CC1` [pentylenetetrazol] reads “None of these pharmacological standards was able to displace”.

Take `c1ccc(C2(N3CCCCC3)CCCCC2)cc1` [phencyclidine]: the “ability” value was “None of these pharmacological standards was able to displace”. Still for that read-out and setting: the result for `NC(=O)CN1CCCC1=O` [piracetam] reads “None of these pharmacological standards was able to displace”; that for `COc1ccc(CN(CCN(C)C)c2ccccn2)cc1` [pyrilamine], “None of these pharmacological standards was able to displace”; that for `O=C1C[C@@H]2OCC=C3CN4CC[C@]56c7ccccc7N1[C@H]5[C@H]2[C@H]3C[C@H]46` [strychnine], “None of these pharmacological standards was able to displace”.

As for `COC(=O)[C@@H]1[C@H]2C[C@H]3c4[nH]c5ccccc5c4CCN3C[C@@H]2CC[C@@H]1O` [yohimbine], the “ability” value is listed as “None of these pharmacological standards was able to displace”. On the same count and under the same terms, under ACTH 1-24: pharmacological standard stands “None of these pharmacological standards was able to displace”; under LHRH: pharmacological standard, “None of these pharmacological standards was able to displace”; under RPPGFSPFR [bradykinin], “None of these pharmacological standards was able to displace”. The same measure, in the same setting: the result for angiotensin III reads “None of these pharmacological standards was able to displace”; that for cholecystokinin, “None of these pharmacological standards was able to displace”; that for neurokinin A, “None of these pharmacological standards was able to displace”. neurokinin B: the “ability” value is given as “None of these pharmacological standards was able to displace”. On the same count and under the same terms, the result for neurotensin 8-13 reads “None of these pharmacological standards was able to displace”; that for substance P, “None of these pharmacological standards was able to displace”; that for veratidine, “None of these pharmacological standards was able to displace”.

A further assay has as its system ACh release. Description: Neurotransmitter release assay: stimulated ACh release from brain slices. Also on record: species or system rat. The following applies: concentration to enhance stimulated release of ACh by 100% (2-fold) over control, from dose response curves. How it is done:
Male Wistar rats weighing 175-200 g were euthanatized and the brains were dissected out immediately. Slices (0.3 mm thick) from the parietal cortex were prepared manually by using a recessed Lucite® guide. Slices (1.5 mm thick) from the hippocampus and the caudate nucleus were prepared by using a slotted brain holder. All slices were subsequently cut into 0.25×0.25 mm squares with a McIlwain tissue chopper.
Labeling of transmitter stores in slices was prepared by the following methods. For ACh release, slices (approximately 100 mg wet weight) were incubated in 10 ml Krebs-Ringer (KR) medium containing (mM): NaCl(116), KCl(3), CaCl2 (1.3), MgCl2 (1.2), KH2 PO4 (1.2), Na2 SO4 (1.2), NaHCO3 (25) and glucose(11), to which 10 μCi ^3 H-choline (specific activity approx. 80 Ci/mmol: NEN) and 10 nmol unlabeled choline had been added to give a final concentration of 10^-6 M. Incubation was carried out for 30 min at 37° C. under a steady flow of 95% O2 /5% CO2. Under these conditions, part of the radioactive choline taken up is converted into radioactive ACh by cholinergic nerve endings, stored in synaptic vesicles, and released upon depolarization by high-K^+ -containing medium [Molenaar et al., 1973a]. For dopamine (DA), serotonin (5-HT), and norepinephrine (NE) release, slices (approximately 100 mg wet weight) were incubated in KR medium containing 0.01 mM nialamide at 37° C. under a steady flow of 95% O2 /5% CO2. The MAO-inhibitor nialamide was added to the medium in order to inhibit metabolism to the monoamines. Incubation was for 30 min in 10 ml of KR medium to which 10 μCi ^3 H-dopamine, ^3 H-norepinephrine, or ^3 H-5-hydroxytryptamine (specific activity 30, 45, and 78 Ci/mmol, respectively: all from NEN) had been added.
Separate experiments were performed for the release of each neurotransmitter. After labeling of the transmitter stores, the slices were washed three times with non-radioactive KR medium and transferred to a superfusion apparatus to measure the drug effects on transmitter release [Schoemaker et al., Psychopharmacology 74, 137 (1981)]. The superfusion apparatus consisted of 10 thermo-jacketed glass columns of 5 mm diameter which were provided with GF/F glass fiber filters to support the brain slices (approximately 10 mg tissue/column). Superfusion was carried out with KR medium at a rate of 0.3 ml/min. For ACh release, 10^-5 M hemicholinium-3 was added to the medium to prevent the uptake of choline formed during superfusion from phospholipids and released ACh, so that it could not be subsequently converted into newly synthesized ACh, which would be released in preference to the pre-formed, labeled ACh. The medium was delivered by a 25-channel peristaltic pump (Ismatec; Brinkman) and maintained at 37° C. by a thermostated stainless-steel heating coil before entering the superfusion column. Each column was provided with a four-way slider valve (Beckman Instruments) which allowed rapid change of low-to-high-K^+ -KR-medium and with two 10-channel, 3-way valves which were used to change form drug-free to drug-containing low- and high-K^+ -KR media.
After 15 min washout of non-specifically bound radioactivity during superfusion, the collection of fractions of 4 min (1.2 ml) each was started. After 3×4 min, the KR medium was changed to a KR medium with 25 mM KCl (ACh, 5-HT release) or 12.5 mM KCl (DA release) (high K^+ -KR medium; S1). Depolarization-induced stimulation of release by high-K^+ -KR medium was then substituted by drug- or vehicle-containing low- and high-K^+ -KR medium and superfusion continued for 3×4 min with low-K^+ -KR medium, for 1×4 min with high-K^+ -KR medium (S2), and for 2×4 min with low-K^+ -KR medium.
Compounds were added to the medium by 100-fold dilution of appropriate stock solutions (in 0.9% NaCl/H2 O) with either low- or high-K^+ -KR medium.
All superfusion fractions were collected in liquid scintillation counting vials.
As for “3,3-Bis(3-pyridinylmethyl)-1-phenyl-1H-indol-2(3H)one N-oxide [Compound 23]”, the “ACh Release EC100” value is recorded as 100,000 nM.
